The source of these data is patent US4156725A (priority 1972, dated 1979).

For one experiment, the system named is Cl. perfringens. As to conditions: British Pat. No. 1303171 and application No. 36289/70; cited from earlier work.
A further experiment has as its system Derm. dermatonomous. As to conditions: British Pat. No. 1303171 and application No. 36289/70; cited from earlier work.
The target of experiment [1] is hydroxymethyldihydropteridine pyrophosphokinase (HMPPS) (Escherichia coli, UniProt P26281). Nature of the experiment: Inhibition of the enzymes of dihydropteroate biosynthesis (ATP-γ-P32 transfer / dihydropteroate-C14 formation). Type of experiment: biochemical. As to conditions: E. coli enzyme extract; tests of Example K; read-out: concentration giving 50% inhibition. Here is the method:
The inhibiting activity against HMPPS of a selected compound of formula (I) can, for instance, be tested by monitoring the transfer of the terminal phosphate of adenosinetriphosphate ATP-γ-p^32 to `dihydropteridine`. […] Such inhibition may, for instance, be easily and simply carried out by incubating an extract of E. coli with pAb-7-C^14, ATP, Mg and `dihydropteridine`. The formation of the dihydropteroate-C^14 can be quantitatively assayed after separating the unreacted pAB substrate, for instance by chromatography. […] Preferably the value is 25 μM or less, such as in the range between 2 to 12 μM. Generally a value below 7 μM is desirable. […]
(a) An assay for HMPPS was developed in which the transfer of the terminal phosphate of ATP-γ-P^32 to Pt could be monitored and correlated with the amount of inhibition of HMPPS by the compound under test. […]
Tubes 1 to 9 containing the amounts of components shown in the Table, were filled up to 200 μl with distilled water, incubated for 60 minutes at 37° C. and then chilled on ice. […] The charcoal and the filter were then radioactively counted. […]
(b) The activity of the test compound of formula (I) against `synthetase` was determined as follows, by monitoring the formation of dihydropteroate C^14. […]

pIC50: −log10 of the molar value.

Chain of hydroxymethyldihydropteridine pyrophosphokinase (HMPPS) (P26281 whole entry): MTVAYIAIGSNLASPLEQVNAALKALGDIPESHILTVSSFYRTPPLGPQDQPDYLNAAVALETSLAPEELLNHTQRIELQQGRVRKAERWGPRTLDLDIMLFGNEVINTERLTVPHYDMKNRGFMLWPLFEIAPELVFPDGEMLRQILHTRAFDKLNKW

For the compound `CC1(C)Nc2nc(N)nc(O)c2N=C1CO` [2-amino-4-hydroxy-6-hydroxymethyl-7,7-dimethyl-7,8-dihydropteridine], the bacteriostatic activity entry in the experiment on Cl. perfringens and with Derm. dermatonomous was “particularly effective” each time. As to `CC1(C)Nc2nc(N)nc(O)c2N=C1COc1ccccc1` [A, 2-Amino-4-hydroxy-6-phenoxymethyl-7,7-dimethyl-7,8-dihydropteridine], in experiment [1], the pIC50 was 4.77. Turning to `CC1=Nc2c(O)nc(N)nc2NC1(C)C` [2-amino-4-hydroxy-6-methyl-7,7-dimethyl-7,8-dihydropteridine], the bacteriostatic activity result in the experiment with Cl. perfringens and in the experiment on Derm. dermatonomous was “particularly effective” each time.
